Measurements published in US10352947B2, “Use of markers in the identification of cardiotoxic agents and in the diagnosis and monitoring of cardiomyopathy and cardiovascular disease” (Berg LLC, priority 2012, dated 2019).
Like-named read-outs stand apart in the source and are kept apart here.

Experiments:
CCDC47 = test system: CCDC47
Experimental: Human serum samples from individuals with type 2 diabetes mellitus (T2D) and/or cardiomyopathy treated with various drugs and appropriate control subjects (n=120 total) were acquired from a commercial source. The characteristics of the group was as follows:
The level of the cardiomyopathy protein biomarker CCDC47 were measured in the serum samples from the T2DM individuals and drug treated T2DM individuals using commercially available ELISA kits. The assays were performed using the manufactures' instructions. An ROC analysis was performed to determine if serum CCDC47 levels correlated with cardiomyopathy.

EDIL3 = assay: Serum EDIL3 ELISA in normal, T2DM, Rosiglitazone-treated T2DM and cardiomyopathy individuals; assay type: in vivo, human; settings: some Rosiglitazone-treated T2DM individuals vs. the other Rosiglitazone-treated T2DM individuals; FIG. 7
Experimental: (§1) The level of protein expression of cardiotoxicity biomarkers EDIL3 and NucB1 in the serum samples from these four groups of individuals were measured by using commercially available ELISA kits.
(§2) The expression levels of the cardiotoxicity biomarkers EDIL3 and NucB1 were determined and the average expression of each biomarker for each group of individuals was calculated.

NucB1 = assay: Serum NucB1 ELISA in normal, T2DM, Rosiglitazone-treated T2DM and cardiomyopathy individuals; assay type: in vivo, human; settings: some Rosiglitazone-treated T2DM individuals vs. the other Rosiglitazone-treated T2DM individuals; FIG. 8
Experimental: as §1, §2

serum lipids = assay: Serum lipidomics of patients (diabetes / rosiglitazone / cardiomyopathy groups); assay type: in vivo, human
Source text: The platform methods provided herein enables integration of multi-omic signatures from human drug induced organ toxicity models. A substantive example of the platforms prowess that is under consideration here is a human drug induced cardio toxicity scenario. Human drug induced cardio toxicity models that comprises of i) Human cardiomyocyte based in vitro models of cardiotoxicity and ii) Serum samples from patients on a drug that induces cardiotoxicity. In vitro models include human cardio myocyte pretreated with fatty acids (linoleic, oleic acids and L-Carnitine) followed by treatment with a drug. The drug under consideration here is a thiazolidinedione. Cell based assays specifically measuring functional end points namely mitochondrial ATP, ROS, cell viability and mitochondrial bioenergetics were performed on in vitro models.
Proteomics was performed using the LTQ Orbitrap from Thermo Scientific as mentioned in earlier reports. Shortgun Lipidomics was performed using the TSQ vantage EMR triple Quad mass spec from thermo.
Standard procedures for merging, normalization and imputation were followed. Quality control plots for these steps are included in the accompanying folder.
Quantification of lipids that are common to serum lipid networks and pellet lipid networks. […] Lipid levels are expressed as a percent of normal lipid levels in FIG. 10B. […]

Row | level of CCDC47 in serum (CCDC47; human, in vivo) | level of CCDC47 in serum (CCDC47; subjects treated with the drug vs. subjects treated with the other two drugs (rosiglitazone, metformin, atorvastatin), ELISA, FIG. 13) | SMILES | EDIL3 expression level in serum (EDIL3) | NucB1 expression level in serum (NucB1) | serum level of lipid PE D18:0-20:3/D18:1-20:2/D16:0-22:3 (serum lipids; diabetic subjects on rosiglitazone with clinical diagnosis of cardiomyopathy vs. diabetic alone and diabetics on rosiglitazone without cardiomyopathy, FIG. 10) | serum ethanolamine glycerophospholipid species P16:0-20:4, D18:0-18:2, P16:0-22:6, P18:0-20:4 and D18:0-20:4 (serum lipids; diabetic vs. diabetic rosiglitazone no cardiomyopathy vs. diabetic rosiglitazone cardiomyopathy)
1 | No significant difference | – | CC(C)c1c(C(=O)Nc2ccccc2)c(-c2ccccc2)c(-c2ccc(F)cc2)n1CC[C@@H](O)C[C@@H](O)CC(=O)O [atorvastatin] | – | – | – | –
2 | No significant difference | – | CN(C)C(=N)N=C(N)N [metformin] | – | – | – | –
3 | – | significant increase | CN(CCOc1ccc(CC2SC(=O)NC2=O)cc1)c1ccccn1 (stereo not shown) [rosiglitazone] | decreased | decreased | significantly reduced | stratified along with the treatment with rosiglitazone
